≈ marks a conversion by molar mass, not a printed value. Calls of active or inactive are those of the source. No cut-off for these calls is given here.

As a reminder, the MIC is the lowest concentration found to suppress growth.

Test [1] concerns Enterococcus faecalis. As to the kind of experiment: Antimicrobial activity against vancomycin-resistant Enterococcus faecalis ATCC 51299 assessed as minimum inhibitory concentration incubated for 18 hrs by broth microdilution method. Format: functional.
The test system of test [2] is Bacillus subtilis. As to the kind of experiment: Antimicrobial activity against Bacillus subtilis ATCC 20678 incubated for 18 hrs by broth microdilution method. Format: functional. (In broth dilution the organism is exposed to a series of concentrations in liquid medium.)
For test [3], the system named is Bacillus subtilis. As to the kind of experiment: Antibacterial activity against Bacillus subtilis 168 assessed as inhibition of bacterial growth incubated for 18 hrs by broth microdilution method. Format: functional.
Test [4] deals with Bacillus subtilis. Description: Antibacterial activity against Bacillus subtilis CMCC(B) 63501 assessed as inhibition of bacterial growth incubated for 18 hrs by broth microdilution method. The class given is functional.
Test [5] concerns Bacillus subtilis. As to the kind of experiment: Antibacterial activity against Bacillus subtilis ATCC 6633 assessed as inhibition of bacterial growth incubated for 18 hrs by broth microdilution method. The class given is functional.
For test [6], the system named is Lacticaseibacillus rhamnosus. As to the kind of experiment: Antibacterial activity against Lactobacillus rhamnosus assessed as inhibition of bacterial growth incubated for 18 hrs by broth microdilution method. Format: functional.
The test system of test [7] is Lactiplantibacillus plantarum. Description: Antibacterial activity against Lactobacillus plantarum assessed as inhibition of bacterial growth incubated for 18 hrs by broth microdilution method. The class given is functional.
Test [8] has as its system Enterococcus faecalis. As to the kind of experiment: Antibacterial activity against Enterococcus faecalis ATCC 51299 assessed as inhibition of bacterial growth incubated for 18 hrs by broth microdilution method. The class given is functional.
Test [9] has as its system Enterococcus faecalis. Description: Antibacterial activity against Enterococcus faecalis ATCC 29212 assessed as inhibition of bacterial growth incubated for 18 hrs by broth microdilution method. Format: functional.
Test [10] deals with Mycolicibacterium smegmatis. As to the kind of experiment: Antibacterial activity against Mycobacterium smegmatis MC 2155 assessed as inhibition of bacterial growth incubated for 18 hrs by broth microdilution method. Format: functional.
For test [11], the system named is Mycolicibacterium smegmatis. Description: Antibacterial activity against Mycobacterium smegmatis ATCC 704 assessed as inhibition of bacterial growth incubated for 18 hrs by broth microdilution method. The class given is functional.
The test system of test [12] is Mycolicibacterium smegmatis. As to the kind of experiment: Antibacterial activity against Mycobacterium smegmatis ARC 700044 assessed as inhibition of bacterial growth incubated for 18 hrs by broth microdilution method. Format: functional.
Another test deals with Listeria monocytogenes. Description: Antibacterial activity against Listeria monocytogenes assessed as inhibition of bacterial growth incubated for 18 hrs by broth microdilution method. The class given is functional.
The test system of test [13] is Acinetobacter baumannii. As to the kind of experiment: Antimicrobial activity against Acinetobacter baumannii ATCC 19606 incubated for 18 hrs by broth microdilution method. Format: functional.
Test [14] concerns Acinetobacter baumannii. As to the kind of experiment: Synergistic antimicrobial activity against Acinetobacter baumannii ATCC 19606 assessed as fractional inhibitory concentration index in presence of polymyxin E incubated for 18 to 20 hrs by chequerboard assay. The class given is functional. The note with it: time 18-20 hrs.
Another test relates to Staphylococcus aureus. As to the kind of experiment: Antimicrobial activity against methicillin/ofloxacin-resistant Staphylococcus aureus ATCC 43300 assessed as minimum inhibitory concentration incubated for 18 hrs by broth microdilution method. The class given is functional.
In test [15] the test system is Acinetobacter baumannii. As to the kind of experiment: Antibacterial activity against Acinetobacter baumannii ATCC 19606 infected in female Balb/c mouse model assessed as increase in animal survival at 64 mg/kg, iv administered every 12 hrs and measured for 7 days. Format: functional, organism-based.
Test [16] deals with Acinetobacter baumannii. Description: Synergistic antibacterial activity against Acinetobacter baumannii ATCC 19606 infected in female Balb/c mouse model assessed as increase in animal survival at 64 mg/kg, iv administered every 12 hrs in presence of 0.5 mg/kg polymyxin-E and measured for 7 days. Format: functional, organism-based.
For test [17], the system named is Acinetobacter baumannii. As to the kind of experiment: Synergistic antibacterial activity against Acinetobacter baumannii ATCC 19606 assessed as fold change in polymyxin-E MIC at 16 microg/ml incubated for 18 hrs by broth microdilution method relative to polymyxin-E alone. The class given is functional. As to conditions: dose 16 µg/ml.
The subject of test [18] is Acinetobacter baumannii. As to the kind of experiment: Synergistic antibacterial activity against Acinetobacter baumannii ATCC 19606 assessed as fold change in polymyxin-E MIC at 2 microg/ml incubated for 18 hrs by broth microdilution method relative to polymyxin-E alone. The class given is functional. The note with it: dose 2 µg/ml.

On to `CN[C@H](CC(C)C)C(=O)N[C@H]1C(=O)N[C@@H](CC(N)=O)C(=O)N[C@H]2C(=O)N[C@H]3C(=O)N[C@H](C(=O)N[C@H](C(=O)O)c4cc(O)cc(O)c4-c4cc3ccc4O)[C@H](O)c3ccc(c(Cl)c3)Oc3cc2cc(c3O[C@@H]2O[C@H](CO)[C@@H](O)[C@H](O)[C@H]2O[C@H]2C[C@](C)(N)[C@H](O)[C@H](C)O2)Oc2ccc(cc2Cl)[C@H]1O` [VANCOMYCIN], for which the minimum inhibitory concentration (MIC) in the test on Enterococcus faecalis [1] is greater than 256 µg/mL; against Bacillus subtilis [2], 1 µg/mL (≈ 0.69 µM); in the test with Bacillus subtilis [3] it was 1 µg/mL (≈ 0.69 µM); with Bacillus subtilis [4], 2 µg/mL (≈ 1.38 µM); in the test on Bacillus subtilis [5], 1 µg/mL (≈ 0.69 µM); in [6], 1 µg/mL (≈ 0.69 µM). The MIC in [7] turned out to be 0.5 µg/mL (≈ 0.345 µM); in the test on Enterococcus faecalis [8] it was 2 µg/mL (≈ 1.38 µM); with Enterococcus faecalis [9], 2 µg/mL (≈ 1.38 µM); in test [10] it was 2 µg/mL (≈ 1.38 µM); in test [11] it was 1 µg/mL (≈ 0.69 µM); in test [12], 2 µg/mL (≈ 1.38 µM). Further, the MIC in the test on Listeria monocytogenes is 2 µg/mL (≈ 1.38 µM).
With `CCOc1ccc(Nc2nc(-c3ccc(F)cc3F)cs2)cc1C(F)(F)F`, the MIC is greater than 256 µg/mL in the test on Acinetobacter baumannii [13], 8 µg/mL (≈ 20 µM) in the test with Staphylococcus aureus, 4 µg/mL (≈ 9.99 µM) with Enterococcus faecalis [1] and 4 µg/mL (≈ 9.99 µM) against Bacillus subtilis [2]. Besides, the “fractional inhibitory concentration index (FICI)” value in the test with Acinetobacter baumannii [14] is reported as 0.094.
For the compound `Fc1ccc(-c2csc(Nc3ccc(C(F)(F)F)cc3)n2)c(F)c1`, the MIC was greater than 256 µg/mL against Acinetobacter baumannii [13], 4 µg/mL (≈ 11.2 µM) in the test on Staphylococcus aureus, 4 µg/mL (≈ 11.2 µM) in the test on Enterococcus faecalis [1] and 4 µg/mL (≈ 11.2 µM) against Bacillus subtilis [2]. Besides, the “fractional inhibitory concentration index (FICI)” value with Acinetobacter baumannii [14] is recorded as 0.14. Also, the outcome in the test on Acinetobacter baumannii [15] and in the test on Acinetobacter baumannii [16] was inactive. The entries for the “fold change (FC)” value in the test on Acinetobacter baumannii [17] and with Acinetobacter baumannii [18] were 16 and 8, respectively.
As for `Fc1cc(Nc2nc(-c3ccco3)cs2)cc(C(F)(F)F)c1`, the MIC is greater than 256 µg/mL against Acinetobacter baumannii [13], 8 µg/mL (≈ 24.4 µM) in the test on Staphylococcus aureus, 8 µg/mL (≈ 24.4 µM) in the test with Enterococcus faecalis [1] and 4 µg/mL (≈ 12.2 µM) in the test with Bacillus subtilis [2]. Also, the “fractional inhibitory concentration index (FICI)” value with Acinetobacter baumannii [14] was determined as 0.187.
With `C/C(=N\Nc1ncccc1Cl)c1csc(Nc2cc(F)cc(C(F)(F)F)c2)n1`, the MIC worked out at 128 µg/mL (≈ 298 µM) against Acinetobacter baumannii [13], 2 µg/mL (≈ 4.65 µM) with Staphylococcus aureus, 4 µg/mL (≈ 9.31 µM) with Enterococcus faecalis [1] and 1 µg/mL (≈ 2.33 µM) in the test with Bacillus subtilis [2]. In addition, the “fractional inhibitory concentration index (FICI)” value with Acinetobacter baumannii [14] was 0.094.
As for `COc1ccc(Nc2nc(-c3ccc(F)cc3F)cs2)cc1C(F)(F)F`, the MIC against Acinetobacter baumannii [13] is greater than 256 µg/mL; with Staphylococcus aureus it was 8 µg/mL (≈ 20.7 µM); in the test with Enterococcus faecalis [1], 8 µg/mL (≈ 20.7 µM); in the test on Bacillus subtilis [2], 4 µg/mL (≈ 10.4 µM). The “fractional inhibitory concentration index (FICI)” value with Acinetobacter baumannii [14] is reported as 0.094.
With `Fc1cc(Nc2nc(-c3cccnc3)cs2)cc(C(F)(F)F)c1`, the MIC is 128 µg/mL (≈ 377 µM) with Acinetobacter baumannii [13], 64 µg/mL (≈ 189 µM) with Staphylococcus aureus, 256 µg/mL (≈ 754 µM) in the test with Enterococcus faecalis [1] and 256 µg/mL (≈ 754 µM) against Bacillus subtilis [2]. The “fractional inhibitory concentration index (FICI)” value in the test with Acinetobacter baumannii [14] worked out at 1.031.

The values are drawn from ChEMBL document CHEMBL6127088, “Novel 2-aminothiazole analogues both as polymyxin E synergist and antimicrobial agent against multidrug-resistant Gram-positive bacteria” (2024).
